88 molecules from a melting point compilation (Tetko et al.; mined from patent text by program, amines drawn as free bases though some values may be those of a salt) can be followed below.

The term melting point denotes the temperature, or range, at which the solid turns liquid.

Regarding `Cc1ccccc1N(CC(=O)OC(C)(C)C)C(=O)CN1C(=O)c2ccccc2C1=O`, the melting point was found to be 140 °C.
With `COc1ccc(C(=C(c2ccc(OC)cc2)C(F)(F)F)c2ccc(OCCN(C)C)cc2)cc1`, the melting point is 77 to 79 °C.
Under `CC(=O)N(O)Cc1ccc2c(c1)Cc1ccccc1-2` stands 182 to 183 °C; under `COC(=O)c1cc2cc(C(=O)c3cccc(C(C)C#N)c3)sc2s1` (stereo not drawn), 163 °C; under `COC[C@](C#N)(C(=O)OC)[C@H](c1ccccc1OC)c1cccc2ccccc12`, 148 to 151 °C.
`CC(=O)N[C@@H]1c2ccccc2C[C@@H]1C` (relative stereo) registered a melting point of 146 to 147 °C.
To `CCCSc1ncc(C=C(Cc2cccs2)C(=O)O)n1Cc1ccccc1Cl` belongs 161 to 162 °C.
The molecule `CSc1nsc(-c2ccccc2)n1` gave a melting point of 57.1 °C.
For `Nc1nonc1-c1nc2ccccc2n1CC(=O)c1ccccc1`, the melting point was 202 to 204 °C.
In the case of `COC(=O)CCc1cc2cc(Cl)c(Cl)cc2[nH]1`, the melting point was 142 °C.
To `Cc1ccc(O[C@@H]2CNCC[C@H]2O)cc1C` (relative stereo) belongs 98 to 99 °C.
Under `CON=C(C(=O)O)c1nc(NC=O)sc1Br` stands 165 to 167 °C; under `CSc1ccc(C=C2C(=O)c3ccccc3CC2OCCn2ccnc2)cc1` (stereo not drawn), 161 to 162 °C.
On to `NC(=O)c1nnn(C2OC(CO)C(O)C2O)c1N` (stereo not drawn), for which the melting point is 159 to 161 °C.
Molecule `N#CCCNC(=O)c1cccc(-c2ccc3c(c2)N(Cc2ccc(Cl)c(Cl)c2)CC3)c1` registered a melting point of 135 to 136 °C.
Under `COc1ccc(Nc2nc(=O)c3cccnc3s2)cc1` stands 250 to 251 °C; under `O=C(NOc1ccc([N+](=O)[O-])cc1)OCCCNC(=O)OC1CCN(C(=O)Oc2ccc(Oc3ccccc3)cc2)CC1`, 97 to 100 °C.
To `COc1ccc(CC(=O)Cc2ccc(OC)cc2)cc1` belongs 75 to 76 °C.
In turn, `CC(C)(C)C(Nc1c(Nc2cccnc2)c(=O)c1=O)C(Oc1ccccc1)C(N)=O` (stereo not drawn) showed a melting point of 227 to 228 °C.
In the case of `Nc1cccc2cc(-c3ccccc3)cnc12`, the melting point fell in the range of 64 to 66 °C.
Under `Nc1ccc(C(=O)O)cc1NCc1ccccc1Cl` stands 176 to 177 °C; under `Cc1nsc2cc(N)c([N+](=O)[O-])cc12`, 189 to 191 °C.
To `O=[N+]([O-])c1ccc(OC(F)(F)c2ccccc2)cc1` belongs 46 to 48 °C.
On to `O=C(N1CCCC1)N1Cc2c(-c3ccc(F)cc3)ncn2-c2ccccc21`, for which the melting point was in the range of 217 to 218 °C.
`COC(=O)Cc1cc2c(s1)NC(=O)C(C)N=C2c1ccccc1Cl` (stereo not drawn) registered a melting point of 185 to 190 °C.
To `Cc1cc(=O)c(-c2ccc(Oc3ccc(Cl)cc3)cc2)c(C)n1O` belongs 232 to 236 °C; to `COc1cccc(CC(=O)O)c1OCc1cc(OC(C)C)nn1Cc1ccc(Cl)cc1Cl`, 127 to 128 °C.
Turning to `CC(C)Oc1cc(N2C(=O)C3CCCCN3C2=O)c(F)cc1Cl` (stereo not drawn), the melting point is 60.5 to 64.5 °C.
The molecule `Nc1ccc(-c2ncnn2-c2ccc(F)cc2)cc1` registered a melting point of 128 to 130 °C.
To `CCn1c(=O)c2cccnc2n(-c2cccc([N+](=O)[O-])c2)c1=O` belongs 210 to 211 °C; to `CCc1c(C(=O)O)ccc(OCc2ccccc2)c1Cl`, 208 to 210 °C.
To `COCc1c(S(C)(=O)=O)ccc(C(=O)C2SCCCC2=O)c1C` (stereo not drawn) belongs 152 to 154 °C; to `CC1(C)CCC(=O)Nc2ccc(Nc3ncc(Cl)c(Nc4ccccc4-c4nccs4)n3)cc21`, 224 °C.
Under `CCOC(=O)C1=CC2(CCC1S(=O)(=O)Nc1ccc(F)cc1Cl)OC(CC)C(CC)(CC)O2` (stereo not drawn) stands 124 to 126 °C; under `O=C1CSCc2cc(Br)ccc21`, 81 °C.
The molecule `Cc1ccc2c(c1C)OCC2c1ccc(C(C)C)cc1` (stereo not drawn) displayed a melting point of 50 to 51 °C.
Molecule `Cc1onc(-c2ccccc2)c1-c1cc2ccccc2[nH]1` came in with a melting point of 145 to 146 °C.
For the molecule `NS(=O)(=O)c1ccc(-c2cccc(-c3nc(-c4ccc(C(F)(F)F)cc4)cc(C(F)(F)F)n3)c2)s1`, the melting point amounted to 204 °C.
Turning to `CCCCCCCCCCOc1cc2oc3c(C(=O)O)cccc3c(=O)c2cc1CCC(=O)O`, the melting point was 180 to 182 °C.
With `COc1cc(OCCOc2ccc(C(=O)C(=O)O)cc2)cc(OC)c1OC`, the melting point fell in the range of 118 to 119 °C.
To `O=C(Nc1ccc(OCCN2CCOCC2)c2ccccc12)c1cc(F)cc(OC2CCCCC2)c1` belongs 116 to 118 °C; to `COc1ccc(-c2nnc3c4ccccc4c(Nc4ccc(NC(=O)c5ccccn5)cc4)nn23)cc1`, 301 to 305 °C; to `O=[N+]([O-])c1ccc(OCc2ccccc2)c(C(F)(F)F)c1`, 112 to 114 °C.
Under `CS(=O)(=O)c1ccc(-c2oc3ccccc3c(=O)c2-c2ccc(Cl)cc2)cc1` stands 145 to 147 °C; under `Cc1ccc(Br)c(Cl)c1NS(=O)(=O)c1ccccc1C(=O)O`, 238 to 242 °C.
`CC(C)(C)c1ccc(/C=N/OCCCOc2ccc(C(=O)O)c(NC(=O)c3ccccc3C(F)(F)F)c2)cc1` showed a melting point of 121 to 122 °C.
The molecule `CCOC1CCC2C3CCC4=CC(=O)CCC4=C3C(c3ccc(C=O)cc3)CC12C` (stereo not drawn) registered a melting point of 149 to 152 °C.
Turning to `Cc1nc2oc3c(c2c(=O)[nH]1)CCCC3`, the melting point was above 300 °C.
Under `CCOc1c(Cc2c[nH]c3ccccc23)[nH]c(=O)c(CC(C)C)[n+]1[O-]` stands 192 to 193 °C; under `CC(c1oc2ccccc2c(=O)c1-c1cccc(F)c1)n1nc(-c2ccc(CN)s2)c2c(N)ncnc21` (stereo not drawn), 275 to 278 °C.
Under `CC=CC(=O)Nc1cc(C(C)(C)C)c(O)c(C(C)(C)C)c1` stands 211 to 214 °C; under `O=c1[nH]c(C2CC2)nc2c1cnn2-c1ncc(C(F)(F)F)cc1Cl`, 239 °C; under `O=C(c1ccccc1)c1ccc(N2CCC(N3Cc4ccccc4C3=O)CC2)cc1`, 173 to 175 °C.
Under `CN(C)Cc1cccc(OCCCNc2nc(N)n[nH]2)c1` stands 92 to 93 °C.
For the molecule `COC(=O)c1ccc(SCc2cccc(Cl)c2)cn1`, the melting point fell in the range of 75 to 77 °C.
`CCOC(=O)c1c(C)nc2c(ncn2C)c1OCCC(C)C` displayed a melting point of 64 to 66 °C.
Under `CC(N)CNC(=O)Nc1ccccc1` (stereo not drawn) stands 118 to 120 °C.
Turning to `CCC#CCOc1cc2c(cc1/C=C/C=C/C(C)=C/C(=O)O)C(C)(C)CCC2(C)C`, the melting point was in the range of 208 to 209 °C.
Consider `Cn1c(COc2ccc(CC3SC(=O)N(C(c4ccccc4)(c4ccccc4)c4ccccc4)C3=O)cc2)nc2ccc(OCc3ccccc3)nc21` (stereo not drawn), for which the melting point was 88 to 92 °C.
To `CC(Nc1ccc(Oc2ccccc2)cc1)C(=O)O` (stereo not drawn) belongs 160 °C; to `CC1(C)COc2ccc(OC(F)(F)F)cc2C(O)(c2ccccn2)C1` (stereo not drawn), 76 °C; to `N#Cc1ccc(C=CCCC(=O)O)cc1`, 154 to 156 °C.
Under `CCCn1c(=O)c2cc(C(=O)OCC)cn2c2ccccc21` stands 143 to 144 °C; under `O=C(C1CCC(Nc2nccc(-n3nnc4c(-c5ccoc5)cccc43)n2)CC1)N1CCC(O)CC1` (stereo not drawn), 243 to 244 °C.
Under `CNC(Cc1ccccc1NC(=O)C(C)(C)C)c1cccs1` (stereo not drawn) stands 78.5 to 82 °C.
For `Cc1[nH]cnc1CSCCNC(=N)NCCCc1c[nH]cn1`, the melting point lay within 128 to 131 °C.
To `Cc1cc(=O)oc2nn(Cc3ccc(Cl)cc3)c(C)c12` belongs 149 to 152 °C.
The molecule `N#Cc1ccc(OCC(F)(F)F)c(F)c1` yielded a melting point of 62 to 67 °C.
Turning to `COc1ccc(Cn2nccc2-c2nn(-c3cccc(C(F)(F)F)c3)ccc2=O)cc1`, the melting point lay within 159 to 161 °C.
The molecule `CC(C)(C)OC(=O)N[C@@H](Cc1ccccc1)[C@@H](O)[C@@H](NCc1cccc2ccccc12)C(=O)O` had a melting point of 225 to 227 °C.
Under `Cc1cc(O)ccc1-c1ccc(C=O)c(Cl)c1` stands 125 to 127 °C.
`CCOC(=O)C1=C(C)N=C(N)N(C(=O)OCC)C1c1cccc([N+](=O)[O-])c1` (stereo not drawn) displayed a melting point of 166 to 168 °C.
`CCC1(Cc2ccccc2)C(=O)N(C)C(=Cc2ccccc2C#N)C(=O)N1C` (stereo not drawn): the melting point was 120 °C.
Under `Cn1cc(C2CCC(=O)C2)c2cc(C#N)ccc21` (stereo not drawn) stands 167 to 168 °C.
To `CCCCCS(=O)(=O)NC(=O)/C=C/c1cc(OC(C)C)nn1Cc1ccc(C(F)(F)F)cc1Cl` belongs 139 to 140 °C; to `CC(C)(C)c1cc(-c2nnc(NN)s2)cc(C(C)(C)C)c1O`, 109 to 122 °C; to `C(=C\c1ccc(N2CCCC2)cc1)/CC1CCN(Cc2ccccc2)CC1`, 115 to 117 °C.
To `CN1CCN(c2cc3c(cc2F)c(=O)c(C(=O)O)cn3C2CC2)CC1c1ccco1` (stereo not drawn) belongs 122 to 124 °C; to `CC(=O)c1c(C)nc2ccccc2c1NCc1cccc(Br)c1`, 109 °C; to `COc1ccc(Nc2ccc(Nc3nc(C)nc4cc(-c5ccccc5)sc34)cc2)cc1`, 181 to 185 °C.
For `O=C(CCC#Cc1ccccn1)Nc1ccc(Cl)cc1`, the melting point was 110 to 111 °C.
To `CCOP(=O)(Cc1ccc(N(C(=O)c2cc3c(s2)-c2c(SC)sc(C(N)=O)c2CC3)c2ccc(CP(=O)(OCC)OCC)cc2)cc1)OCC` belongs 262 to 263 °C; to `CCOC(=O)/C=C/c1c(-c2ccccc2)c2cc(C)c(C)cc2c(=O)n1C`, 143 to 145 °C.
To `Cc1ccc(N(c2ccccc2)c2ccc3c4c(cccc24)CC3)cc1` belongs 147 to 148 °C; to `CN(C(=O)CN(C(=O)CNC(=O)Nc1cccc(CO)c1)c1ccccc1)c1ccccc1`, 120 °C; to `CCOC(=O)CNC(=O)c1ccc(O)cc1`, 205 to 209 °C.
To `CCOCCn1c(N2CCCN(CCC3(c4ccccn4)CCN(C(=O)c4cc(OC)c(OC)c(OC)c4)C3)CC2)nc2ccccc21` (stereo not drawn) belongs 50 to 55 °C.
Molecule `O=C(O)C1=Cc2ccc(Cl)c(Cl)c2OC1C(F)(F)F` (stereo not drawn) registered a melting point of 220 to 221 °C.
